Source: US7566787B2, “Small molecule cyclin D1 ablative agents” (The Ohio State University, priority 2004, dated 2009)
Peptide text beside a SMILES is read from it. * marks the point of attachment. Cbz = O=C(OCc1ccccc1)*

Assays:
MCF-7 cells = test: MTT cell viability assay; type: cell-based; conditions: Homo sapiens, MCF7, cell viability data, read-out: IC50 for MTT
Experimental: Cell viability analysis. The effect of individual test agents on cell viability was assessed by using the MTT [3-(4,5-dimethylthiazol-2-yl)-2,5-diphenyl-2H-tetrazolium bromide] assay in six replicates. Cells were seeded and incubated in 96-well, flat-bottomed plates in DMEM-F12 media with 10% FBS for 24 h, and were exposed to various concentrations of test agents dissolved in DMSO (final DMSO concentration, 0.1%) in 5% FBS-supplemented DMEM-F12 medium. Controls received DMSO vehicle at a concentration equal to that of drug-treated cells. The medium was removed, replaced by 200 μl of 0.5 mg/ml of MTT in 10% FBS-containing RPMI-1640 medium, and cells were incubated in the CO2 incubator at 37° C. for 2 h. Supernatants were removed from the wells, and the reduced MTT dye was solubilized in 200 μl/well DMSO. Absorbance at 570 nm was determined on a plate reader.

cyclin D1 = test: Western blot analysis of cyclin D1 expression in MCF-7 cells; type: cell-based, human; conditions: for IC50: western blot data, read-out: IC50 for WB; for minimum concentration required for the complete ablation of cyclin D1 / effect of co-treatment on TG- and Δ2-TG-induced cyclin D1 ablation: 24 h; for minimum concentration required for the complete ablation of cyclin D1: 5% FBS; for effect of co-treatment on TG- and Δ2-TG-induced cyclin D1 ablation: with 40 μM TG or 30 μM Δ2-TG
Experimental: Western Blot Analysis. MCF-7 or MDA-MB-231 cells were seeded in 10% FBS-containing DMEM-F-12 for 24 h and treated with various agents as indicated. After individual treatments for 24 h, both the incubation medium and adherent cells in T-25 or T-75 flasks were scraped and collected by centrifugation at 2,000×g for 10 min. The pellets were recovered, placed on ice, and triturated with 20 to 50 μl of a chilled lysis buffer (M-PER® Mammalian Protein Extraction Reagent, Pierce, Rockford, Ill.) to which was added 1% protease inhibitor cocktail (set III, EMD Biosciences, Inc. San Diego, Calif.). After a 30 min-incubation on ice, the mixture was centrifuge at 16,100×g for 3 min. Two μl of the suspension was taken for protein analysis using the Bradford assay kit (Bio-Rad, Hercules, Calif.). To the remaining solution was added the same volume of 2× SDS-PAGE sample loading buffer (100 mM Tris-HCl, pH 6.8, 4% SDS, 5% β-mercaptoethanol 20% glycerol, and 0.1% bromophenol blue). The mixture was boiled for 10 min. Equal amounts of proteins were loaded onto 10% SDS-PAGE gels. After electrophoresis, protein bands were transferred to nitrocellulose membranes in a semi-dry transfer cell. The transblotted membrane was blocking with TBST [Tris-buffered saline (TBS) containing 0.1% Tween 20] containing 5% nonfat milk for 90 min, and the membrane was incubated with the appropriate primary antibody in TBST-5% nonfat milk at 4° C. overnight. After washing three times with TBST for a total of 45 min, the transblotted membrane was incubated with goat anti-rabbit or anti-mouse IgG-horseradish peroxidase conjugates (diluted 1:1000) for 1 h at room temperature and washed four times with TBST for a total of 1 h. The immunoblots were visualized by enhanced chemiluminescence.

IC50 (MCF-7 cells) [µM] | IC50 (cyclin D1) [µM] | Compound | further results
12.5 | – | CC(C)=CCOc1c(C)c(C)c2c(c1C)CCC(C)(COc1ccc(/C=C3\SC(=O)NC3=O)cc1F)O2 (stereo not drawn) [TG-30] | –
38 | – | CC(C)=CCOc1c(C)c(C)c2c(c1C)CCC(C)(COc1ccc(/C=C3\SC(=O)NC3=O)cc1[N+](=O)[O-])O2 (stereo not drawn) [TG-35] | –
37 | – | O=C1NC(=O)/C(=C/c2ccc(OCC3CCc4ccccc4C3)cc2)S1 (stereo not drawn) [TG-15] | –
34 | > 7.5 | CC(C)=CCOc1c(C)c(C)c2c(c1C)CCC(C)(COc1ccc(/C=C/C(=O)O)cc1Br)O2 (stereo not drawn) [TG-37] | –
> 50 | > 7.5 | CCc1ccc(-c2cc(/C=C3\SC(=O)NC3=O)ccc2OCC2(C)CCc3c(C)c(OCC=C(C)C)c(C)c(C)c3O2)cc1 (stereo not drawn) [TG-33] | –
10.5 | – | C=CCOc1c(C)c(C)c2c(c1C)CCC(C)(COc1c(C)cc(/C=C3\SC(=O)NC3=O)cc1C)O2 (stereo not drawn) [TG-52] | –
> 50 | – | CCOC(=O)C(C)(C)C(O)c1ccc(OCC2(C)CCc3c(C)c(OCC=C(C)C)c(C)c(C)c3O2)c(Br)c1 (stereo not drawn) [TG-38] | –
17.5 | – | C=CCOc1c(C)c(C)c2c(c1C)CCC(C)(COc1c(Br)cc(/C=C3\SC(=O)NC3=O)cc1OC)O2 (stereo not drawn) [TG-54] | –
15 | – | COc1cc(/C=C2\SC(=O)NC2=O)ccc1OCC1(C)CCc2c(C)c(OCC=C(C)C)c(C)c(C)c2O1 (stereo not drawn) [TG-16] | –
28.5 | > 7.5 | Cc1c(C)c2c(c(C)c1OC/C=C/c1ccccc1)CCC(C)(COc1ccc(/C=C3\SC(=O)NC3=O)cc1Br)O2 (stereo not drawn) [TG-11] | –
14.5 | 7 | CC(C)=CCOc1c(C)c(C)c2c(c1C)CCC(C)(COc1ccc(/C=C3\SC(=O)NC3=O)cc1)O2 (stereo not drawn) [TG-14] | –
14.5 | > 7.5 | COc1cc(/C=C2\SC(=O)NC2=O)cc(Br)c1OCC1(C)CCc2c(C)c(OCC=C(C)C)c(C)c(C)c2O1 (stereo not drawn) [TG-44] | –
17 | > 7.5 | C=CCOc1c(C)c(C)c2c(c1C)CCC(C)(COc1ccc(/C=C3\SC(=O)NC3=O)cc1OCC)O2 (stereo not drawn) [TG-55] | –
> 50 | > 7.5 | CCOC(=O)C(=Cc1ccc(OCC2(C)CCc3c(C)c(OCC=C(C)C)c(C)c(C)c3O2)c(Br)c1)C(=O)OCC (stereo not drawn) [TG-41] | –
37.3 | – | CC(C)=CCOc1c(C)c(C)c2c(c1C)CCC(C)(COc1ccc(/C=C3\SC(=S)NC3=O)c3ccccc13)O2 (stereo not drawn) [TG-46] | –
14.5 | – | CC(C)=CCOc1c(C)c(C)c2c(c1C)CCC(C)(COc1ccc(/C=C3\SC(=O)NC3=O)c3ccccc13)O2 (stereo not drawn) [TG-43] | –
14.5 | > 7.5 | CC(C)=CCOc1c(C)c(C)c2c(c1C)CCC(C)(COc1ccc(/C=C3\SC(=O)NC3=O)cc1Br)O2 (stereo not drawn) [TG-88] | –
> 50 | > 7.5 | CC(C)=CCOc1c(C)c(C)c2c(c1C)CCC(C)(COc1ccc(/C=C3\SC(=O)NC3=O)cc1-c1ccc(C(F)(F)F)cc1)O2 (stereo not drawn) [TG-31] | –
23.5 | – | C=CCOc1c(C)c(C)c2c(c1C)CCC(C)(COc1ccc(/C=C3\SC(=O)NC3=O)cc1C)O2 (stereo not drawn) [TG-29] | –

Second part, the molecule before the results:

Compound | IC50 (MCF-7 cells) [µM] | IC50 (cyclin D1) [µM] | further results
C=CCOc1c(C)c(C)c2c(c1C)CCC(C)(COc1ccc(/C=C3\SC(=O)NC3=O)c3ccccc13)O2 (stereo not drawn) [TG-53] | 14.5 | – | –
C=CCOc1c(C)c(C)c2c(c1C)CCC(C)(COc1ccc(/C=C3\SC(=O)NC3=O)cc1OC)O2 (stereo not drawn) [TG-28] | 14.5 | – | –
CCOc1cc(/C=C2\SC(=O)NC2=O)ccc1OCC1(C)CCc2c(C)c(OCC=C(C)C)c(C)c(C)c2O1 (stereo not drawn) [TG-45] | 13 | – | –
Cc1c(C)c2c(c(C)c1OC(=O)CCC(=O)O)CCC(C)(COc1ccc(/C=C3\SC(=O)NC3=O)cc1)O2 (stereo not drawn) [TG-13] | > 50 | > 7.5 | –
C=CCOc1c(C)c(C)c2c(c1C)CCC(C)(COc1ccc(/C=C3\SC(=O)NC3=O)cc1Br)O2 (stereo not drawn) [TG-27] | 28 | > 7.5 | –
Cc1c(C)c2c(c(C)c1O)CCC(C)(COc1ccc(CC3SC(=O)NC3=O)cc1)O2 (stereo not drawn) [TG, troglitazone, reference compound] | – | – | time of complete ablation of cyclin D1 (cyclin D1; 40 μM TG, 30 μM Δ2-TG): 24 h; minimum concentration required for the complete ablation of cyclin D1 (cyclin D1): 40 µM
Cc1c(C)c2c(c(C)c1OC/C=C/c1ccccc1)CCC(C)(COc1ccc(/C=C3\SC(=O)NC3=O)cc1)O2 (stereo not drawn) [TG-10] | 19 | > 7.5 | –
CC(C)C[C@@H](C=O)NC(=O)[C@H](CC(C)C)NC(=O)[C@H](CC(C)C)NC(=O)OCc1ccccc1 [MG132, reference compound] (Cbz-Leu-Leu-Leu-aldehyde) | – | – | effect of co-treatment on Δ2-TG-6 cyclin D1 ablation (cyclin D1; FIG. 8C): could be blocked; effect of co-treatment on TG- and Δ2-TG-induced cyclin D1 ablation (cyclin D1): effective in rescuing
CC(C)=CCOc1c(C)c(C)c2c(c1C)CCC(C)(COc1ccc(/C=C3\SC(=O)NC3=O)cc1-c1ccc(F)cc1)O2 (stereo not drawn) [TG-32] | 19.5 | > 7.5 | –
O=C(Nc1ccccc1)c1cc([N+](=O)[O-])ccc1Cl [GW9962, reference compound] | – | – | effect of co-treatment on TG-mediated cyclin D1 down-regulation (cyclin D1; concentrations three orders of magnitude higher than the IC50 in PPARγ binding): did not prevent; effect on cyclin D1 expression (cyclin D1; high doses / comparable concentrations): no appreciable effect
C=CCOc1c(C)c(C)c2c(c1C)CCC(C)(COc1ccc(/C=C3\SC(=S)NC3=O)cc1)O2 (stereo not drawn) [TG-3] | 11 | 3.5 | –
CC(C)=CCOc1c(C)c(C)c2c(c1C)CCC(C)(COc1ccc(C(O)C(C)(C)C(=O)O)cc1Br)O2 (stereo not drawn) [TG-39] | 46 | > 7.5 | –
CC(C)=CCOc1c(C)c(C)c2c(c1C)CCC(C)(COc1c(Br)cc(/C=C3\SC(=O)NC3=O)cc1Br)O2 (stereo not drawn) [TG-34] | 15.5 | – | –
CC(C)=CCOc1c(C)c(C)c2c(c1C)CCC(C)(COc1ccc(C=C(C#N)C#N)cc1Br)O2 (stereo not drawn) [TG-36] | > 50 | > 7.5 | –
C=CCOc1c(C)c(C)c2c(c1C)CCC(C)(COc1ccc(/C=C3\SC(=O)N(CC(=O)OC)C3=O)cc1)O2 (stereo not drawn) [TG-9] | > 50 | > 7.5 | –
C=CCOc1c(C)c(C)c2c(c1C)CCC(C)(COc1cccc(/C=C3\SC(=O)NC3=O)c1)O2 (stereo not drawn) [TG-51] | 40 | – | –
CC[C@H](C)[C@H](NC(=O)[C@H]([C@@H](C)CC)N(C)C(C)=O)C(=O)N[C@H](C(=O)N[C@@H](CC(C)C)C(=O)[C@@]1(C)CO1)[C@@H](C)O [epoxomicin, reference compound] | – | – | effect of co-treatment on TG- and Δ2-TG-induced cyclin D1 ablation (cyclin D1): effective in rescuing
Cn1cc(C2=C(c3ccc(Cl)cc3Cl)C(=O)NC2=O)c2ccccc21 [SB216763, reference compound] | – | – | effect of co-treatment on TG- and Δ2-TG-induced cyclin D1 ablation (cyclin D1): could not rescue
CC(=O)N[C@@H](CSC(=O)[C@]1([C@@H](O)C(C)C)NC(=O)[C@H](C)[C@@H]1O)C(=O)O [lactacystin, reference compound] | – | – | effect of co-treatment on TG- and Δ2-TG-induced cyclin D1 ablation (cyclin D1): effective in rescuing
CC1(COc2ccc(CC3SC(=O)NC3=O)cc2)CCCCC1 (stereo not drawn) [CG, ciglitazone, reference compound] | – | – | minimum concentration required for the complete ablation of cyclin D1 (cyclin D1): 50 µM
CC(C)=CCOc1c(C)c(C)c2c(c1C)CCC(C)(COc1ccc(C=C(C(=O)O)C(=O)O)cc1Br)O2 (stereo not drawn) [TG-42] | > 50 | > 7.5 | –
CC(C)=CCOc1c(C)c(C)c2c(c1C)CCC(C)(COc1ccc(/C=C3\SC(=O)NC3=O)cc1C)O2 (stereo not drawn) [TG-17] | 14.5 | – | –
Cc1c(C)c2c(c(C)c1OCc1ccccc1)CCC(C)(COc1ccc(/C=C3\SC(=O)NC3=O)cc1)O2 (stereo not drawn) [TG-12] | 16.7 | – | –
